In ChEMBL document CHEMBL4831492, “Design and synthesis of 2-(2-isonicotinoylhydrazineylidene)propanamides as InhA inhibitors with high antitubercular activity” (Eur J Med Chem, 2021):
In brackets after ≈: the same amount, converted by molar mass.

Key:
Format in all cases: functional
[1] = tested on: Mycobacterium tuberculosis; assay: Antimycobacterial activity against multi drug-resistant Mycobacterium tuberculosis praha 1 assessed as minimal inhibitory concentration required for complete inhibition of mycobacterial growth incubated for 14 days; settings: praha 1, 336 h, time 14 day
[2] = tested on: Mycobacterium tuberculosis; assay: Antimycobacterial activity against multi drug-resistant Mycobacterium tuberculosis praha 1 assessed as minimal inhibitory concentration required for complete inhibition of mycobacterial growth incubated for 21 days; settings: praha 1, 504 h, time 21 day
[3] = tested on: Mycobacterium tuberculosis; assay: Antimycobacterial activity against multi drug-resistant Mycobacterium tuberculosis praha 4 assessed as minimal inhibitory concentration required for complete inhibition of mycobacterial growth incubated for 14 days; settings: praha 4, 336 h, time 14 day
[4] = tested on: Mycobacterium tuberculosis; assay: Antimycobacterial activity against multi drug-resistant Mycobacterium tuberculosis praha 4 assessed as minimal inhibitory concentration required for complete inhibition of mycobacterial growth incubated for 21 days; settings: praha 4, 504 h, time 21 day
[5] = tested on: Mycobacterium tuberculosis; assay: Antimycobacterial activity against multi drug-resistant Mycobacterium tuberculosis praha 131 assessed as minimal inhibitory concentration required for complete inhibition of mycobacterial growth incubated for 14 days; settings: praha 131, 336 h, time 14 day
[6] = tested on: Mycobacterium tuberculosis; assay: Antimycobacterial activity against multi drug-resistant Mycobacterium tuberculosis praha 131 assessed as minimal inhibitory concentration required for complete inhibition of mycobacterial growth incubated for 21 days; settings: praha 131, 504 h, time 21 day
[7] = tested on: Mycobacterium tuberculosis; assay: Antimycobacterial activity against multi drug-resistant Mycobacterium tuberculosis 234/2005 assessed as minimal inhibitory concentration required for complete inhibition of mycobacterial growth incubated for 14 days; settings: 234/2005, 336 h, time 14 day
[8] = tested on: Mycobacterium tuberculosis; assay: Antimycobacterial activity against multi drug-resistant Mycobacterium tuberculosis 234/2005 assessed as minimal inhibitory concentration required for complete inhibition of mycobacterial growth incubated for 21 days; settings: 234/2005, 504 h, time 21 day
[9] = tested on: Mycobacterium tuberculosis; assay: Antimycobacterial activity against multi drug-resistant Mycobacterium tuberculosis 9449/2007 assessed as minimal inhibitory concentration required for complete inhibition of mycobacterial growth incubated for 14 days; settings: 9449/2007, 336 h, time 14 day
[10] = tested on: Mycobacterium tuberculosis; assay: Antimycobacterial activity against multi drug-resistant Mycobacterium tuberculosis 9449/2007 assessed as minimal inhibitory concentration required for complete inhibition of mycobacterial growth incubated for 21 days; settings: 9449/2007, 504 h, time 21 day
[11] = tested on: Mycobacterium tuberculosis; assay: Antimycobacterial activity against multi drug-resistant Mycobacterium tuberculosis 7357/1998 assessed as minimal inhibitory concentration required for complete inhibition of mycobacterial growth incubated for 14 days; settings: 7357/1998, 336 h, time 14 day
[12] = tested on: Mycobacterium tuberculosis; assay: Antimycobacterial activity against multi drug-resistant Mycobacterium tuberculosis 7357/1998 assessed as minimal inhibitory concentration required for complete inhibition of mycobacterial growth incubated for 21 days; settings: 7357/1998, 504 h, time 21 day
[13] = tested on: Mycobacterium tuberculosis; assay: Antimycobacterial activity against multi drug-resistant Mycobacterium tuberculosis 8666/2010 assessed as minimal inhibitory concentration required for complete inhibition of mycobacterial growth incubated for 14 days; settings: 8666/2010, 336 h, time 14 day
[14] = tested on: Mycobacterium tuberculosis; assay: Antimycobacterial activity against multi drug-resistant Mycobacterium tuberculosis 8666/2010 assessed as minimal inhibitory concentration required for complete inhibition of mycobacterial growth incubated for 21 days; settings: 8666/2010, 504 h, time 21 day
[15] = tested on: Mycobacterium tuberculosis; assay: Antimycobacterial activity against Mycobacterium tuberculosis H37Ra overexpressing InhA assessed as bacterial growth inhibition incubated for 28 days by drop dilution method; settings: 672 h, time 28 day
[16] = tested on: Mycobacterium tuberculosis; assay: Antimycobacterial activity against Mycobacterium tuberculosis H37Ra overexpressing KatGs-meg assessed as bacterial growth inhibition incubated for 28 days by drop dilution method; settings: 672 h, time 28 day

Row | SMILES | MIC [1] [µM] | MIC [2] [µM] | MIC [3] [µM] | MIC [4] [µM] | MIC [5] [µM] | MIC [6] [µM] | MIC [7] [µM] | MIC [8] [µM] | MIC [9] [µM] | MIC [10] [µM] | MIC [11] [µM] | MIC [12] [µM] | MIC [13] [µM] | MIC [14] [µM] | MIC [15] [µM] | MIC [16] [µM]
1 | C/C(=N\NC(=O)c1ccncc1)C(=O)Nc1ccc(F)cc1 | 64 (≈ 19.2 µg/mL) | 64 (≈ 19.2 µg/mL) | 32 (≈ 9.61 µg/mL) | 64 (≈ 19.2 µg/mL) | 64 (≈ 19.2 µg/mL) | 64 (≈ 19.2 µg/mL) | 64 (≈ 19.2 µg/mL) | 125 (≈ 37.5 µg/mL) | 32 (≈ 9.61 µg/mL) | 32 (≈ 9.61 µg/mL) | 64 (≈ 19.2 µg/mL) | 64 (≈ 19.2 µg/mL) | 32 (≈ 9.61 µg/mL) | 32 (≈ 9.61 µg/mL) |  | 
2 | C/C(=N\NC(=O)c1ccncc1)C(=O)Nc1ccc(Cl)c(Cl)c1 | 64 (≈ 22.5 µg/mL) | 125 (≈ 43.9 µg/mL) | 64 (≈ 22.5 µg/mL) | 125 (≈ 43.9 µg/mL) | 32 (≈ 11.2 µg/mL) | 64 (≈ 22.5 µg/mL) | 64 (≈ 22.5 µg/mL) | 125 (≈ 43.9 µg/mL) | 32 (≈ 11.2 µg/mL) | 32 (≈ 11.2 µg/mL) | 64 (≈ 22.5 µg/mL) | 125 (≈ 43.9 µg/mL) | 32 (≈ 11.2 µg/mL) | 32 (≈ 11.2 µg/mL) |  | 
3 | C/C(=N\NC(=O)c1ccncc1)C(=O)Nc1ccc(OC(F)(F)F)cc1 | 64 (≈ 23.4 µg/mL) | 64 (≈ 23.4 µg/mL) | 32 (≈ 11.7 µg/mL) | 64 (≈ 23.4 µg/mL) | 64 (≈ 23.4 µg/mL) | 64 (≈ 23.4 µg/mL) | 32 (≈ 11.7 µg/mL) | 32 (≈ 11.7 µg/mL) | 32 (≈ 11.7 µg/mL) | 64 (≈ 23.4 µg/mL) | 32 (≈ 11.7 µg/mL) | 64 (≈ 23.4 µg/mL) | 32 (≈ 11.7 µg/mL) | 64 (≈ 23.4 µg/mL) | 6 (≈ 2.2 µg/mL) | 0.15 (≈ 0.0549 µg/mL)
4 | C/C(=N\NC(=O)c1ccncc1)C(=O)Nc1ccc(I)cc1 | 16 (≈ 6.53 µg/mL) | 32 (≈ 13.1 µg/mL) | 16 (≈ 6.53 µg/mL) | 32 (≈ 13.1 µg/mL) | 8 (≈ 3.27 µg/mL) | 16 (≈ 6.53 µg/mL) | 16 (≈ 6.53 µg/mL) | 16 (≈ 6.53 µg/mL) | 8 (≈ 3.27 µg/mL) | 16 (≈ 6.53 µg/mL) | 16 (≈ 6.53 µg/mL) | 32 (≈ 13.1 µg/mL) | 8 (≈ 3.27 µg/mL) | 16 (≈ 6.53 µg/mL) | 12.5 (≈ 5.1 µg/mL) | 0.25 (≈ 0.102 µg/mL)
5 | C/C(=N\NC(=O)c1ccncc1)C(=O)Nc1ccc(Br)cc1 | 32 (≈ 11.6 µg/mL) | 32 (≈ 11.6 µg/mL) | 32 (≈ 11.6 µg/mL) | 32 (≈ 11.6 µg/mL) | 32 (≈ 11.6 µg/mL) | 64 (≈ 23.1 µg/mL) | 32 (≈ 11.6 µg/mL) | 64 (≈ 23.1 µg/mL) | 32 (≈ 11.6 µg/mL) | 64 (≈ 23.1 µg/mL) | 32 (≈ 11.6 µg/mL) | 32 (≈ 11.6 µg/mL) | 32 (≈ 11.6 µg/mL) | 32 (≈ 11.6 µg/mL) |  | 
6 | C/C(=N\NC(=O)c1ccncc1)C(=O)Nc1ccc(Cl)cc1 | 32 (≈ 10.1 µg/mL) | 32 (≈ 10.1 µg/mL) | 32 (≈ 10.1 µg/mL) | 32 (≈ 10.1 µg/mL) | 32 (≈ 10.1 µg/mL) | 64 (≈ 20.3 µg/mL) | 32 (≈ 10.1 µg/mL) | 64 (≈ 20.3 µg/mL) | 32 (≈ 10.1 µg/mL) | 64 (≈ 20.3 µg/mL) | 32 (≈ 10.1 µg/mL) | 32 (≈ 10.1 µg/mL) | 8 (≈ 2.53 µg/mL) | 16 (≈ 5.07 µg/mL) |  | 
7 | C/C(=N\NC(=O)c1ccncc1)C(=O)Nc1cccc(Cl)c1 | 32 (≈ 10.1 µg/mL) | 32 (≈ 10.1 µg/mL) | 32 (≈ 10.1 µg/mL) | 32 (≈ 10.1 µg/mL) | 32 (≈ 10.1 µg/mL) | 64 (≈ 20.3 µg/mL) | 64 (≈ 20.3 µg/mL) | 64 (≈ 20.3 µg/mL) | 32 (≈ 10.1 µg/mL) | 64 (≈ 20.3 µg/mL) | 32 (≈ 10.1 µg/mL) | 32 (≈ 10.1 µg/mL) | 16 (≈ 5.07 µg/mL) | 32 (≈ 10.1 µg/mL) |  | 
8 | C/C(=N\NC(=O)c1ccncc1)C(=O)Nc1ccc(C(F)(F)F)cc1 | 32 (≈ 11.2 µg/mL) | 64 (≈ 22.4 µg/mL) | 32 (≈ 11.2 µg/mL) | 64 (≈ 22.4 µg/mL) | 64 (≈ 22.4 µg/mL) | 64 (≈ 22.4 µg/mL) | 32 (≈ 11.2 µg/mL) | 64 (≈ 22.4 µg/mL) | 32 (≈ 11.2 µg/mL) | 32 (≈ 11.2 µg/mL) | 32 (≈ 11.2 µg/mL) | 64 (≈ 22.4 µg/mL) | 32 (≈ 11.2 µg/mL) | 32 (≈ 11.2 µg/mL) |  | 
